Test results: patent US12545639B2, “3-substituted phenylamidine compounds, preparation and use thereof” (PI INDUSTRIES LTD., priority 2019, dated 2026)

How the values were obtained:
Colletotrichum capsici = Colletotrichum capsici (anthracnose) in vitro test, radial growth on potato dextrose agar; type: cell-based; conditions: Colletotrichum truncatum, 168 h; 300 ppm in potato dextrose agar; 25° C., 60% relative humidity, seven days; read-out: control compared to the untreated check (radial growth)
Phakopsora pachyrhizi = Phakopsora pachyrhizi test in soybean, preventive, in vivo on plants; conditions: in Glycine max, read-out: Efficacy (% control), disease severity compared to the untreated check
Fusarium culmorum = Fusarium culmorum (foot rot of cereals) in vitro test, radial growth on potato dextrose agar; type: cell-based; conditions: 168 h, 300 ppm in potato dextrose agar, 25° C., 60% relative humidity, seven days, read-out: control compared to the untreated check (radial growth)
Procedure: Compounds were dissolved in 0.3% dimethyl sulfoxide and then added to potato dextrose agar medium just prior to dispensing it into petri dishes. 5 mL medium with the compound in the desired concentration was dispensed into 60 mm sterile petri-plates. After solidification each plate was seeded with a 5 mm size mycelial disc taken from the periphery of an actively growing virulent culture plate. Plates were incubated in growth chambers at 25° C. temperature and 60% relative humidity for seven days and then the radial growth was measured and compared to that of the untreated control.

[1] = test system: Septoria lycopersici/Corynespora cassicola (CORYCA); assay: Septoria lycopersici/Corynespora cassicola (CORYCA) (leaf spot of tomato) in vitro test, radial growth on potato dextrose agar; type: cell-based; conditions: 168 h, 300 ppm in potato dextrose agar, 25° C., 70% relative humidity, seven days, read-out: control compared to the untreated check (radial growth)
Pyricularia oryzae = assay: microbe, parasite or virus in culture; type: cell-based; conditions: 168 h, read-out: control compared to the untreated check (radial growth)
Alternaria solani = Alternaria solani (early blight of tomato/potato) in vitro test, radial growth on potato dextrose agar; type: cell-based; conditions: 168 h, 300 ppm in potato dextrose agar, 25° C., 60% relative humidity, seven days, read-out: control compared to the untreated check (radial growth)
Botrytis cinerea = Botrytis cinerea (gray mold) in vitro test, radial growth on potato dextrose agar; type: cell-based; conditions: 168 h, 300 ppm in potato dextrose agar, 22° C., 90% relative humidity, seven days, read-out: control compared to the untreated check (radial growth)
Rhizoctonia solani = Rhizoctonia solani (rice sheath blight/potato black scurf) in vitro test, radial growth on potato dextrose agar; type: cell-based; conditions: 168 h, 300 ppm in potato dextrose agar, 25° C., 60% relative humidity, seven days, read-out: control compared to the untreated check (radial growth)

CCN(C)C=Nc1cc(C)cc(N(C)c2cc(C)ccc2Cl)c1Cl [Compound 120, N′-(2-chloro-3-((2-chloro-5-methylphenyl)(methyl)amino)-5-methylphenyl)-N-ethyl-N-methylformimidamide]
≥ 70%: inhibition of growth at 300 ppm (Colletotrichum capsici) | pest or weed control at 500 ppm (Phakopsora pachyrhizi) | inhibition of growth at 300 ppm (Fusarium culmorum) | inhibition of growth at 300 ppm [1] | inhibition of growth at 300 ppm (Pyricularia oryzae) | inhibition of growth at 300 ppm (Alternaria solani)

CCN(C)C=Nc1cc(C)cc(Cc2ccc(C)cc2)c1C [Compound 2, N′-(2,5-dimethyl-3-(4-methylbenzyl)phenyl)-N-ethyl-N-methylformimidamide]
≥ 70%: inhibition of growth at 300 ppm (Colletotrichum capsici) | inhibition of growth at 300 ppm (Fusarium culmorum) | inhibition of growth at 300 ppm (Botrytis cinerea) | inhibition of growth at 300 ppm (Rhizoctonia solani) | inhibition of growth at 300 ppm [1] | inhibition of growth at 300 ppm (Pyricularia oryzae) | inhibition of growth at 300 ppm (Alternaria solani)

CCN(C)C=Nc1cc(C)cc(Nc2ccc(C(C)(C)C)cc2)c1Cl [Compound 25, N′-(3-((4-(tert-butyl)phenyl)amino)-2-chloro-5-methylphenyl)-N-ethyl-N-methylformimidamide]
≥ 70%: inhibition of growth at 300 ppm (Colletotrichum capsici) | inhibition of growth at 300 ppm (Fusarium culmorum) | inhibition of growth at 300 ppm (Botrytis cinerea) | inhibition of growth at 300 ppm (Rhizoctonia solani) | inhibition of growth at 300 ppm [1] | inhibition of growth at 300 ppm (Pyricularia oryzae) | inhibition of growth at 300 ppm (Alternaria solani)

CCN(C)C=Nc1cc(Cl)cc(Nc2cccc(Cl)c2)c1C [Compound 163, N′-(5-chloro-3-((3-chlorophenyl)amino)-2-methylphenyl)-N-ethyl-N-methylformimidamide]
≥ 70%: inhibition of growth at 300 ppm (Colletotrichum capsici) | inhibition of growth at 300 ppm (Fusarium culmorum) | inhibition of growth at 300 ppm (Botrytis cinerea) | inhibition of growth at 300 ppm (Rhizoctonia solani) | inhibition of growth at 300 ppm [1] | inhibition of growth at 300 ppm (Pyricularia oryzae) | inhibition of growth at 300 ppm (Alternaria solani)

CCN(C)C=Nc1cc(C)cc(Nc2ccc(SC(F)(F)F)cc2)c1Cl [Compound 26, N′-(2-chloro-5-methyl-3-((4-((trifluoromethyl)thio)phenyl)amino)phenyl)-N-ethyl-N-methylformimidamide]
≥ 70%: inhibition of growth at 300 ppm (Colletotrichum capsici) | pest or weed control at 500 ppm (Phakopsora pachyrhizi) | inhibition of growth at 300 ppm (Fusarium culmorum) | inhibition of growth at 300 ppm (Botrytis cinerea) | inhibition of growth at 300 ppm (Rhizoctonia solani) | inhibition of growth at 300 ppm (Alternaria solani)

CCN(C)C=Nc1cc(C)cc(Cc2cccc(F)c2)c1SC [Compound 190, N-ethyl-N′-(3-(3-fluorobenzyl)-5-methyl-2-(methylthio)phenyl)-N-methylformimidamide]
≥ 70%: inhibition of growth at 300 ppm (Colletotrichum capsici) | pest or weed control at 500 ppm (Phakopsora pachyrhizi) | inhibition of growth at 300 ppm (Fusarium culmorum) | inhibition of growth at 300 ppm (Rhizoctonia solani) | inhibition of growth at 300 ppm (Pyricularia oryzae) | inhibition of growth at 300 ppm (Alternaria solani)

CCN(C)C=Nc1cc(Cl)cc(Cc2ccccc2C)c1C [Compound 88, N′-(5-chloro-2-methyl-3-(2-methylbenzyl)phenyl)-N-ethyl-N-methylformimidamide]
≥ 70%: inhibition of growth at 300 ppm (Colletotrichum capsici) | pest or weed control at 500 ppm (Phakopsora pachyrhizi) | inhibition of growth at 300 ppm (Fusarium culmorum) | inhibition of growth at 300 ppm (Botrytis cinerea) | inhibition of growth at 300 ppm (Rhizoctonia solani) | inhibition of growth at 300 ppm (Pyricularia oryzae) | inhibition of growth at 300 ppm (Alternaria solani)

CCN(C)C=Nc1cc(C)cc(Cc2cccc(Cl)c2)c1C [Compound 3, N′-(3-(3-chlorobenzyl)-2,5-dimethylphenyl)-N-ethyl-N-methylformimidamide]
≥ 70%: inhibition of growth at 300 ppm (Colletotrichum capsici) | inhibition of growth at 300 ppm (Fusarium culmorum) | inhibition of growth at 300 ppm (Botrytis cinerea) | inhibition of growth at 300 ppm (Rhizoctonia solani) | inhibition of growth at 300 ppm [1] | inhibition of growth at 300 ppm (Pyricularia oryzae) | inhibition of growth at 300 ppm (Alternaria solani)

CCN(C)C=Nc1cc(C)cc(Cc2ccccc2C)c1Cl [Compound 12, N′-(2-chloro-5-methyl-3-(2-methylbenzyl)phenyl)-N-ethyl-N-methylformimidamide]
≥ 70%: inhibition of growth at 300 ppm (Colletotrichum capsici) | inhibition of growth at 300 ppm (Fusarium culmorum) | inhibition of growth at 300 ppm (Botrytis cinerea) | inhibition of growth at 300 ppm (Rhizoctonia solani) | inhibition of growth at 300 ppm [1] | inhibition of growth at 300 ppm (Pyricularia oryzae) | inhibition of growth at 300 ppm (Alternaria solani)

CCN(C)C=Nc1cc(Cl)cc(Cc2ccc(C)cc2)c1C [Compound 105, N′-(5-chloro-2-methyl-3-(4-methylbenzyl)phenyl)-N-ethyl-N-methylformimidamide]
≥ 70%: inhibition of growth at 300 ppm (Colletotrichum capsici) | pest or weed control at 500 ppm (Phakopsora pachyrhizi) | inhibition of growth at 300 ppm (Fusarium culmorum) | inhibition of growth at 300 ppm (Botrytis cinerea) | inhibition of growth at 300 ppm (Rhizoctonia solani) | inhibition of growth at 300 ppm (Pyricularia oryzae) | inhibition of growth at 300 ppm (Alternaria solani)

CCN(C)C=Nc1cc(F)cc(Nc2cc(Cl)ccc2C)c1C [Compound 116, N′-(3-((5-chloro-2-methylphenyl)amino)-5-fluoro-2-methylphenyl)-N-ethyl-N-methylformimidamide]
≥ 70%: inhibition of growth at 300 ppm (Colletotrichum capsici) | pest or weed control at 500 ppm (Phakopsora pachyrhizi) | inhibition of growth at 300 ppm (Fusarium culmorum) | inhibition of growth at 300 ppm [1] | inhibition of growth at 300 ppm (Pyricularia oryzae) | inhibition of growth at 300 ppm (Alternaria solani)

CCN(C)C=Nc1cc(C)cc(Nc2ccc(F)c(OC)c2)c1Cl [Compound 275, N′-(2-chloro-3-((4-fluoro-3-methoxyphenyl)amino)-5-methylphenyl)-N-ethyl-N-methylformimidamide]
≥ 70%: inhibition of growth at 300 ppm (Colletotrichum capsici) | pest or weed control at 500 ppm (Phakopsora pachyrhizi) | inhibition of growth at 300 ppm (Fusarium culmorum) | inhibition of growth at 300 ppm (Rhizoctonia solani) | inhibition of growth at 300 ppm [1] | inhibition of growth at 300 ppm (Pyricularia oryzae) | inhibition of growth at 300 ppm (Alternaria solani)

CCN(C)C=Nc1cc(Cl)cc(Cc2ccc(C#N)cc2)c1C [Compound 246, N′-(5-chloro-3-(4-cyanobenzyl)-2-methylphenyl)-N-ethyl-N-methylformimidamide]
≥ 70%: inhibition of growth at 300 ppm (Colletotrichum capsici) | inhibition of growth at 300 ppm (Fusarium culmorum) | inhibition of growth at 300 ppm (Botrytis cinerea) | inhibition of growth at 300 ppm (Rhizoctonia solani) | inhibition of growth at 300 ppm (Pyricularia oryzae) | inhibition of growth at 300 ppm (Alternaria solani)

CCN(C)C=Nc1cc(C)cc(Cc2cccc(F)c2)c1C [Compound 5, N-ethyl-N′-(3-(3-fluorobenzyl)-2,5-dimethylphenyl)-N-methylformimidamide]
≥ 70%: inhibition of growth at 300 ppm (Colletotrichum capsici) | inhibition of growth at 300 ppm (Fusarium culmorum) | inhibition of growth at 300 ppm (Botrytis cinerea) | inhibition of growth at 300 ppm (Rhizoctonia solani) | inhibition of growth at 300 ppm [1] | inhibition of growth at 300 ppm (Pyricularia oryzae) | inhibition of growth at 300 ppm (Alternaria solani)

CCN(C)C=Nc1cc(C)cc(Cc2ccc(C#N)cc2)c1Cl [Compound 46, N′-(2-chloro-3-(4-cyanobenzyl)-5-methylphenyl)-N-ethyl-N-methylformimidamide]
≥ 70%: inhibition of growth at 300 ppm (Colletotrichum capsici) | inhibition of growth at 300 ppm (Fusarium culmorum) | inhibition of growth at 300 ppm (Botrytis cinerea) | inhibition of growth at 300 ppm (Rhizoctonia solani) | inhibition of growth at 300 ppm (Pyricularia oryzae) | inhibition of growth at 300 ppm (Alternaria solani)

CCN(C)C=Nc1cc(C)cc(Nc2cccc(F)c2)c1Cl [Compound 35, N′-(2-chloro-3-((3-fluorophenyl)amino)-5-methylphenyl)-N-ethyl-N-methylformimidamide]
≥ 70%: inhibition of growth at 300 ppm (Colletotrichum capsici) | inhibition of growth at 300 ppm (Fusarium culmorum) | inhibition of growth at 300 ppm (Botrytis cinerea) | inhibition of growth at 300 ppm (Rhizoctonia solani) | inhibition of growth at 300 ppm [1] | inhibition of growth at 300 ppm (Pyricularia oryzae) | inhibition of growth at 300 ppm (Alternaria solani)

CCN(C)C=Nc1cc(C)cc(Cc2ccccc2C)c1C [Compound 4, N′-(2,5-dimethyl-3-(2-methylbenzyl)phenyl)-N-ethyl-N-methylformimidamide]
≥ 70%: inhibition of growth at 300 ppm (Colletotrichum capsici) | inhibition of growth at 300 ppm (Fusarium culmorum) | inhibition of growth at 300 ppm (Botrytis cinerea) | inhibition of growth at 300 ppm (Rhizoctonia solani) | inhibition of growth at 300 ppm [1] | inhibition of growth at 300 ppm (Pyricularia oryzae) | inhibition of growth at 300 ppm (Alternaria solani)

CCN(C)C=Nc1cc(F)cc(Nc2ccc(F)c(F)c2)c1C [Compound 73, N′-(3-((3,4-difluorophenyl)amino)-5-fluoro-2-methylphenyl)-N-ethyl-N-methylformimidamide]
≥ 70%: inhibition of growth at 300 ppm (Colletotrichum capsici) | inhibition of growth at 300 ppm (Fusarium culmorum) | inhibition of growth at 300 ppm (Botrytis cinerea) | inhibition of growth at 300 ppm (Rhizoctonia solani) | inhibition of growth at 300 ppm [1] | inhibition of growth at 300 ppm (Pyricularia oryzae) | inhibition of growth at 300 ppm (Alternaria solani)

CCN(C)C=Nc1cc(Cl)cc(Nc2ccc(OC)cc2)c1C [Compound 162, N′-(5-chloro-3-((4-methoxyphenyl)amino)-2-methylphenyl)-N-ethyl-N-methylformimidamide]
≥ 70%: inhibition of growth at 300 ppm (Colletotrichum capsici) | inhibition of growth at 300 ppm (Fusarium culmorum) | inhibition of growth at 300 ppm (Rhizoctonia solani) | inhibition of growth at 300 ppm [1] | inhibition of growth at 300 ppm (Pyricularia oryzae) | inhibition of growth at 300 ppm (Alternaria solani)

CCN(C)C=Nc1cc(C)cc(Nc2ncc(Cl)cc2C)c1Cl [Compound 112, N′-(2-chloro-3-((5-chloro-3-methylpyridin-2-yl)amino)-5-methylphenyl)-N-ethyl-N-methylformimidamide]
≥ 70%: inhibition of growth at 300 ppm (Colletotrichum capsici) | inhibition of growth at 300 ppm (Fusarium culmorum) | inhibition of growth at 300 ppm [1] | inhibition of growth at 300 ppm (Pyricularia oryzae) | inhibition of growth at 300 ppm (Alternaria solani)
